EP4647073A1, “MURRAYA KOENIGII IN THE TREATMENT OF UPPER RESPIRATORY TRACT INFECTIONS” (Nutraceutical Technology Pharma Biotech S.r.l., priority 2024, dated 2025)
Each block holds one molecule with its values, some of them ahead of it.

Assays:
S. pyogenes (ATCC 19615) = assay: Agar well diffusion method, antibacterial activity; format: cell-based; conditions: Streptococcus pyogenes
Protocol: The agar well diffusion method was used for the assessment of the antibacterial activity of M. koenigii leaves against S. pyogenes (ATCC 19615). Six DMSO extracts of M. koenigii leaves from different geographical origins were tested. Antibacterial assay was performed on M17 agar ([…] Abruzzi, Italy). An overnight anaerobic culture of S. pyogenes grown at 37°C, was diluted in order to obtain a suspension containing approximately 1×10^8 CFU/ml. Each agar plate was spread with the microbial suspension. Using a sterile agar gel puncher, equidistant wells were created and filled with 0.1 ml of each sample. The plates were allowed to stand for 30 minutes to allow pre-diffusion of the tested samples, and thereafter incubated at 37°C for 24 h under anaerobic conditions. After incubation, the diameter of any zone of inhibition surrounding each well was measured. Each experiment was performed in triplicates and the means were calculated. […] Louis, USA). Each standard was weighed separately, solubilized in methanol and diluted in DMSO. […] Antibacterial assay was performed on M17 agar ([…] Abruzzi, 25 Italy). An overnight anaerobic culture of S. pyogenes, grown at 37°C, was diluted approximately to obtain 1×10^8 CFU/ml and spread on M17 agar. Using a sterile agar gel puncher, equidistant wells were created and filled with 0.1 ml of each extraction solvent. The plate was allowed to stand for 30 minutes to allow pre-diffusion of the tested samples, and thereafter incubated at 37°C. The zone of inhibition around each well was measured in mm.

[1] = Release of carbazole alkaloids from the chewing gum of Example 5 during chewing (HPLC/DAD of chewed bolus); format: in vivo, healthy adult volunteers; conditions: average of three chewers
Protocol: The chromatographic separation was performed by an HPLC/DAD system series 1200 from Agilent (Agilent Technologies, Santa […], California, USA); the analytical column was a Kinetex C18 5um, 100A (150 mm x 3.00 mm i.d.) from Phenomenex (Phenomenex SRL, Bologna; Italy) equipped with a security guard column. […] The elution of the analytes was carried out with a gradient method: initial condition was 40% of ACN, then brought to 90% in 10 minutes and kept for 8 minutes. […] An aliquot of each solution was withdrawn in order to prepare a mix standard solution and a calibration curve from 0.5 ppm to 4.0 ppm in MeOH was created for the quantification of samples. […] Each chewed bolus of the resulting 4 chewing tests, was frozen overnight and then weighed, ground and added with MeOH. The supernatant was filtered and analysed by HPLC/DAD. In Table 4 below, the release results are reported, being focused on the main actives of M. koenigii. Table 4: […]

S. pyogenes = assay: TTC assay (broth microdilution) for MIC and MBC determination; format: cell-based, Streptococcus pyogenes; conditions: for inhibition at 250 µg/mL (stock) / OD 480 nm (24 h) / OD 600 nm (24 h) / log10 (CFU/ml): duplicate wells
Protocol: Louis, MO) as colorimetric indicator. In the presence of living bacteria, the colourless TTC is reduced to red formazan. […] Two different stock solutions of M. koenigii leaves were prepared in DMSO at concentrations of 100 mg/ml (1:10) and 20 mg/ml (1:50). Two-fold dilution method was performed in order to obtain a concentration range of 0.04 mg/ml to 10 mg/ml for the 20 mg/ml stock solution and of 0.2 mg/ml to 50 mg/ml for the 100 mg/ml stock solution. An overnight anaerobic culture of S. pyogenes grown at 37°C was adjusted to a final concentration of 1x10^7 CFU/ml in M17 broth ([…] Abruzzi, Italy) and added to the microplate wells containing different concentrations of the extract, in order to obtain a final inoculum of approximately 1x10^6 CFU/well. The microplate was incubated at 37°C under anaerobic conditions for 24 h. […] To discriminate between bactericidal/bacteriostatic activity of the extract, 100 μl aliquots from each tested dilution were used to calculate the number of viable cells (CFU/ml) by plate count method and 10 μl aliquots from the same wells were streaked on M17 agar plates (Figure 3). […] TTC assay is depicted in Figure 4, where a picture of the microplate used for the TTC assay is reported. […] Table 2: Antibacterial activity of DMSO extract of M. koenigii leaves against S. pyogenes. All results are the mean of triplicates wells. […] Medium M17 (blank), positive control (S. pyogenes without M. koenigii), Ext. (Extract). A stock solution of amoxicillin (Sigma-Aldrich, St. Louis, USA) was prepared at a concentration of 0.25 mg/ml in DMSO. The antibacterial properties against S. pyogenes of the plant extract alone, amoxicillin alone and their combination were evaluated by TTC assay as mentioned above. For the experiment, the 20 mg/ml stock solution of M. koenigii leaves was used and a solution containing 0.25 mg/ml amoxicillin and 20 mg/ml extract was prepared.

[2] = Table 3, dilution 1:2 of stock (amoxicillin 0.25 mg/ml; mix 0.25 mg/ml amoxicillin and 20 mg/ml extract)
[3] = Table 3, dilution 1:4 of stock (amoxicillin 0.25 mg/ml; mix 0.25 mg/ml amoxicillin and 20 mg/ml extract)
[4] = Table 3, dilution 1:8 of stock (amoxicillin 0.25 mg/ml; mix 0.25 mg/ml amoxicillin and 20 mg/ml extract)
[5] = Table 3, dilution 1:16 of stock (amoxicillin 0.25 mg/ml; mix 0.25 mg/ml amoxicillin and 20 mg/ml extract)
[6] = Table 3, dilution 1:32 of stock (amoxicillin 0.25 mg/ml; mix 0.25 mg/ml amoxicillin and 20 mg/ml extract)
[7] = Table 3, dilution 1:64 of stock (amoxicillin 0.25 mg/ml; mix 0.25 mg/ml amoxicillin and 20 mg/ml extract)
[8] = Table 3, dilution 1:128 of stock (amoxicillin 0.25 mg/ml; mix 0.25 mg/ml amoxicillin and 20 mg/ml extract)

Structure (SMILES): CC(C)=CCCC1(C)C=Cc2c(c(C)cc3c2[nH]c2ccccc23)O1 (centres unmarked) [Mahanimbine]
zone of inhibition at 6 µg/mL (S. pyogenes (ATCC 19615); ATCC19615, read-out: inhibition zone): ~20 mm
% release ([1]; chewing gum of Example 5, chewing time 0.0 min): 0.0%
% release ([1]; chewing gum of Example 5, chewing time 5.0 min): 54.7%
% release ([1]; chewing gum of Example 5, chewing time 10.0 min): 51.5%
% release ([1]; chewing gum of Example 5, chewing time 15.0 min): 59.7%
% release ([1]; chewing gum of Example 5, chewing time 20.0 min): 54.7%

Structure (SMILES): COc1ccc2[nH]c3c4c(c(C)cc3c2c1)OC(C)(C)C=C4 [Koenimbine]
zone of inhibition at 4 µg/mL (S. pyogenes (ATCC 19615); ATCC19615, standard at 4 µg/ml, 0.1 ml per well, M17 agar, 37°C): ~18 mm

Structure (SMILES): COc1cc2[nH]c3c4c(c(C)cc3c2cc1OC)OC(C)(C)C=C4 [Koenigicine]
zone of inhibition at 3 µg/mL (S. pyogenes (ATCC 19615); ATCC19615, standard at 3 µg/ml, 0.1 ml per well, M17 agar, 37°C): ~20 mm

MIC (S. pyogenes; Streptococcus pyogenes, M17 broth, 37°C, anaerobic, 24 h): 16 µg/mL
Structure (SMILES): CC1(C)S[C@@H]2[C@H](NC(=O)[C@H](N)c3ccc(O)cc3)C(=O)N2[C@H]1C(=O)O [Amoxicillin, amoxicillin]
inhibition at 250 µg/mL (stock) (S. pyogenes; Streptococcus pyogenes, Table 3, dilution 1:2 of stock (amoxicillin 0.25 mg/ml; mix 0.25 mg/ml amoxicillin and 20 mg/ml extract)): 100%
inhibition at 250 µg/mL (stock) (S. pyogenes; Streptococcus pyogenes, Table 3, dilution 1:4 of stock (amoxicillin 0.25 mg/ml; mix 0.25 mg/ml amoxicillin and 20 mg/ml extract)): 100%
inhibition at 250 µg/mL (stock) (S. pyogenes; Streptococcus pyogenes, Table 3, dilution 1:8 of stock (amoxicillin 0.25 mg/ml; mix 0.25 mg/ml amoxicillin and 20 mg/ml extract)): 100%
inhibition at 250 µg/mL (stock) (S. pyogenes; Streptococcus pyogenes, Table 3, dilution 1:16 of stock (amoxicillin 0.25 mg/ml; mix 0.25 mg/ml amoxicillin and 20 mg/ml extract)): 48.6%
inhibition at 250 µg/mL (stock) (S. pyogenes; Streptococcus pyogenes, Table 3, dilution 1:32 of stock (amoxicillin 0.25 mg/ml; mix 0.25 mg/ml amoxicillin and 20 mg/ml extract)): 40.6%
inhibition at 250 µg/mL (stock) (S. pyogenes; Streptococcus pyogenes, Table 3, dilution 1:64 of stock (amoxicillin 0.25 mg/ml; mix 0.25 mg/ml amoxicillin and 20 mg/ml extract)): 41.5%
inhibition at 250 µg/mL (stock) (S. pyogenes; Streptococcus pyogenes, Table 3, dilution 1:128 of stock (amoxicillin 0.25 mg/ml; mix 0.25 mg/ml amoxicillin and 20 mg/ml extract)): 42%
MBC (S. pyogenes; Streptococcus pyogenes, M17 broth, 37°C, anaerobic, 24 h, complete inhibition of growth): 31 µg/mL
OD 480 nm (24 h) (S. pyogenes; [2]): 0.003
OD 600 nm (24 h) (S. pyogenes; [2]): 0.002
log10 (CFU/ml) (S. pyogenes; [2]): 0.00 log10 (CFU/ml)
OD 480 nm (24 h) (S. pyogenes; [3]): 0.001
OD 600 nm (24 h) (S. pyogenes; [3]): 0.011
log10 (CFU/ml) (S. pyogenes; [3]): 0.00 log10 (CFU/ml)
OD 480 nm (24 h) (S. pyogenes; [4]): 0.005
OD 600 nm (24 h) (S. pyogenes; [4]): 0.026
log10 (CFU/ml) (S. pyogenes; [4]): 0.00 log10 (CFU/ml)
OD 480 nm (24 h) (S. pyogenes; [5]): 0.057
OD 600 nm (24 h) (S. pyogenes; [5]): 0.088
log10 (CFU/ml) (S. pyogenes; [5]): 4.51 log10 (CFU/ml)
OD 480 nm (24 h) (S. pyogenes; [6]): 0.098
OD 600 nm (24 h) (S. pyogenes; [6]): 0.137
log10 (CFU/ml) (S. pyogenes; [6]): 5.20 log10 (CFU/ml)
OD 480 nm (24 h) (S. pyogenes; [7]): 0.120
OD 600 nm (24 h) (S. pyogenes; [7]): 0.158
log10 (CFU/ml) (S. pyogenes; [7]): 5.12 log10 (CFU/ml)
OD 480 nm (24 h) (S. pyogenes; [8]): 0.140
OD 600 nm (24 h) (S. pyogenes; [8]): 0.161
log10 (CFU/ml) (S. pyogenes; [8]): 5.08 log10 (CFU/ml)
